Laboratory results published in US6462055B2, “Alpha-methylbenzyl-containing thiourea inhibitors of herpes viruses containing a phenylenediamine group” (Wyeth, priority 1998, dated 2002).
Values after ≈ are worked out from the molar mass of the structure shown.

Columns and labels:
HSV-1 = experiment: HSV Antiviral (ELISA) Assay in Vero cells; assay type: cell-based, herpes simplex virus type 1; settings: HSV-1, Vero cells; for IC50: Human alphaherpesvirus 1, read-out: IC50 (ug/ml) HSV
How it was run: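 Viral replication was quantified by cell-fixed ELISA for HSV glycoprotein D, using a β-galactosidase reporter and fluorogenic umbelliferyl substrate, about 24 h after HSV-1 infection (MOI 0.006) of Vero cells. Compounds, at several concentrations, were added 30 min pre-infection. IC50 was derived from fluorescence relative to the compound-free signal.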

[1] = system: HCMV recombinant mutant virus (RV145); experiment: microbe, parasite or virus in culture; assay type: cell-based, human cytomegalovirus; settings: for IC50: Human betaherpesvirus 5, read-out: IC50 ug/ml HCMV, HCMV
How it was run: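 Read-out is beta-glucuronidase activity in cell lysates 96 h after infection, measured colorimetrically or fluorometrically. Reporter virus RV145 expresses the enzyme under a viral promoter in human foreskin fibroblasts treated with inhibitor.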

VZV strain Ellen = experiment: VZV Antiviral (ELISA) Assay in human foreskin fibroblast cells; assay type: cell-based, varicella-zoster virus; settings: for IC50: Human alphaherpesvirus 3, Fibroblast, read-out: IC50 (ug/ml) VZV
How it was run: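 Cell-based ELISA: infected/uninfected HFF mix (VZV Ellen, MOI <0.1) exposed to compound in DMEM/2% FBS for 3 days at 37° C. Anti-gpII monoclonal plus β-galactosidase-linked secondary, detected as 4-methylumbelliferone fluorescence; IC50 derived by comparing fluorescence with versus without compound.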

What does the source list for `CC(NC(=S)Nc1ccc(C(=O)Nc2ccc(F)cc2)cc1)c1ccc(F)cc1` (centres unmarked) [Example 975, N-(4-Fluoro-phenyl)-4-{3-[1-(4-fluoro-phenyl)-ethyl]-thioureido}-benzamide]?
IC50 (HSV-1): > 10 µg/mL; IC50 [1]: > 10 µg/mL; IC50 (VZV strain Ellen): 0.87 µg/mL (≈ 2.11 µM)

What does the source list for `CC(NC(=S)Nc1ccc(NC(=O)c2nccc3ccccc23)cc1)c1ccc(F)cc1` (centres unmarked) [Example 976, Isoquinoline-1-carboxylic acid (4-{3-[1-(4-fluoro-phenyl)-ethyl]-thioureido}-phenyl)-amide]?
IC50 (HSV-1): > 10 µg/mL; IC50 ug/ml HCMV [1]: >10 µg/mL; IC50 (VZV strain Ellen): 0.04 µg/mL (≈ 0.09 µM)

What does the source list for `CC(NC(=S)Nc1ccc(NC(=O)c2nccc3ccccc23)cc1)c1cc2ccccc2o1` (centres unmarked) [Example 977, Isoquinoline-1-carboxylic acid {4-[3-(1-benzofuran-2-yl-ethyl)-thioureido]-phenyl}-amide]?
IC50 (HSV-1): > 10 µg/mL; IC50 [1]: > 10 µg/mL; IC50 (VZV strain Ellen): 0.05 µg/mL (≈ 0.107 µM)

What does the source list for `CC(NC(=S)Nc1ccc(NC(=O)c2cc3ccccc3o2)cc1)c1ccc(F)cc1` (centres unmarked) [Example 980, Benzofuran-2-carboxylic acid (4-{3-[1-(4-fluoro-phenyl)-ethyl]-thioureido}-phenyl)-amide]?
IC50 (HSV-1): > 10 µg/mL; IC50 [1]: > 10 µg/mL; IC50 (VZV strain Ellen): 0.15 µg/mL (≈ 0.346 µM)

`CC(NC(=S)Nc1ccc(NC(=O)c2cc3ccccc3o2)cc1)c1cc2ccccc2o1` (centres unmarked) [Example 981, Benzofuran-2-carboxylic acid {4-[3-(1-benzofuran-2-yl-ethyl)-thioureido]-phenyl}-amide] was tested. Which IC50 (HSV-1) did it give?
The IC50 was over 10 µg/mL.

What about the IC50 [1] of the same compound?
The IC50 was over 10 µg/mL.

And the IC50 (VZV strain Ellen)?
Its IC50 is 0.2 µg/mL (≈ 0.439 µM).

With `CC(NC(=S)Nc1ccc(NC(=O)c2cc3ccccc3cn2)cc1)c1cc2ccccc2o1` (centres unmarked) [Example 985, Isoquinoline-3-carboxylic acid {4-[3-(1-benzofuran-2-yl-ethyl)-thioureido]-phenyl}-amide] as the compound, how does the IC50 (HSV-1) read?
Its IC50 is over 10 µg/mL.

What about the IC50 [1] of the same compound?
Its IC50 is over 10 µg/mL.

And the IC50 (VZV strain Ellen)?
The IC50 was 0.035 µg/mL (≈ 0.075 µM).

For `CC(NC(=S)Nc1ccc(NC(=O)c2cnc3ccccc3c2)cc1)c1ccc(F)cc1` (centres unmarked) [Example 988, Quinoline-3-carboxylic acid (4-{3-[1-(4-fluoro-phenyl)-ethyl]-thioureido}-phenyl)-amide], which IC50 (HSV-1) is on record?
The IC50 was over 10 µg/mL.

What about the IC50 [1] of the same compound?
Its IC50 is over 10 µg/mL.

What about the IC50 (VZV strain Ellen) of the same compound?
The IC50 was 3.4 µg/mL (≈ 7.65 µM).

`CC(C)COc1ccc(NC(=S)Nc2ccc(NC(=O)c3ccccc3F)cc2)cc1Cl` [Example 994, N-{4-[3-(3-Chloro-4-isobutoxy-phenyl)-thioureido]-phenyl}-2-fluoro-benzamide] was tested. Which IC50 (HSV-1) did it give?
The IC50 was over 10 µg/mL.

What about the IC50 [1] of the same compound?
The IC50 was over 10 µg/mL.

And the IC50 (VZV strain Ellen)?
Its IC50 is over 10 µg/mL.

For `COc1ccc(NC(=S)Nc2ccc(NC(=O)c3ccccc3F)cc2)cc1F` [Example 995, 2-Fluoro-N-{4-[3-(3-fluoro-4-methoxy-phenyl)-thioureido]-phenyl}-benzamide], which IC50 (HSV-1) is on record?
Its IC50 is over 10 µg/mL.

And the IC50 [1]?
Its IC50 is over 10 µg/mL.

And the IC50 (VZV strain Ellen)?
The IC50 was over 10 µg/mL.

How did the IC50 (HSV-1) turn out when `COCCOc1ccc(NC(=S)Nc2ccc(NC(=O)c3ccccc3F)cc2)cc1Cl` [Example 996, N-(4-{3-[3-Chloro-4-(2-methoxy-ethoxy)-phenyl]-thioureido}-phenyl)-2-fluoro-benzamide] was run?
Its IC50 is over 10 µg/mL.

What about the IC50 [1] of the same compound?
The IC50 was over 10 µg/mL.

What about the IC50 (VZV strain Ellen) of the same compound?
Its IC50 is 10 µg/mL (≈ 21.1 µM).

`Cc1ccc(NC(=S)Nc2ccc(NC(=O)c3ccccc3F)cc2)cc1F` [Example 997, 2-Fluoro-N-{4-[3-(3-fluoro-4-methyl-phenyl)-thioureido]-phenyl}-benzylamide] was tested. Which “IC50 (ug/ml) HSV” value (HSV-1) did it give?
Its value is 1.9 µg/mL (≈ 4.78 µM).

And the “IC50 ug/ml HCMV” value [1]?
The value was 4 µg/mL (≈ 10.1 µM).

What about the “IC50 (ug/ml) VZV” value (VZV strain Ellen) of the same compound?
Its value is over 10 µg/mL.

How did the IC50 (HSV-1) turn out when `COc1ccc(NC(=S)Nc2ccc(NC(=O)c3ccccc3F)cc2)cc1C(F)(F)F` [Example 998, 2-Fluoro-N-{4-[3-(4-methoxy-3-trifluoromethyl-phenyl)-thioureido]-phenyl}-benzamide] was run?
The IC50 was 3 µg/mL (≈ 6.47 µM).

And the IC50 [1]?
Its IC50 is over 10 µg/mL.

And the IC50 (VZV strain Ellen)?
Its IC50 is 5 µg/mL (≈ 10.8 µM).

How did the IC50 (HSV-1) turn out when `O=C(Nc1ccc(NC(=S)Nc2ccc(Cl)cc2O)cc1)c1ccccc1F` [Example 1001, N-{4-[3-(4-Chloro-2-hydroxy-phenyl)-thioureido]-phenyl}-2-fluoro-benzamide] was run?
Its IC50 is 4.3 µg/mL (≈ 10.3 µM).

And the IC50 [1]?
Its IC50 is 2.6 µg/mL (≈ 6.25 µM).

What about the IC50 (VZV strain Ellen) of the same compound?
Its IC50 is 3.6 µg/mL (≈ 8.66 µM).

With `CC(NC(=S)Nc1ccc(NC(=O)c2ccccc2F)cc1)c1cc2ccccc2o1` (centres unmarked) [Example 1002, N-{4-[3-(1-Benzofuran-2-yl-ethyl)-thioureid]-phenyl}-2-fluoro-benzamide] as the compound, how does the “IC50 (ug/ml) HSV” value (HSV-1) read?
Its value is over 10 µg/mL.

What about the “IC50 ug/ml HCMV” value [1] of the same compound?
The value was 2.1 µg/mL (≈ 4.84 µM).

And the “IC50 (ug/ml) VZV” value (VZV strain Ellen)?
Its value is 0.08 µg/mL (≈ 0.185 µM).

Which results are given for `Cc1ccc(NC(=S)Nc2ccc(NC(=O)c3ccccc3F)cc2)cc1C(F)(F)F` [Example 1003, 2-Fluoro-N-{4-[3-(4-methyl-3-trifluoromethyl-phenyl)-thioureido]-phenyl}-benzamide]?
IC50 (HSV-1): > 10 µg/mL; IC50 [1]: > 10 µg/mL; IC50 (VZV strain Ellen): > 10 µg/mL

Which “IC50 (ug/ml) HSV” value (HSV-1) does the source give for `CC(NC(=S)Nc1ccc(NC(=O)c2ccccc2F)cc1)c1ccc(S(=O)(=O)N2CCCCC2)cc1` (centres unmarked) [Example 1009] here?
Its value is over 10 µg/mL.

What about the “IC50 ug/ml HCMV” value [1] of the same compound?
The value was over 10 µg/mL.

What about the “IC50 (ug/ml) VZV” value (VZV strain Ellen) of the same compound?
Its value is over 10 µg/mL.

How did the IC50 (HSV-1) turn out when `O=C(Nc1ccc(NC(=S)Nc2ccc(OCC(F)(F)F)cc2OCC(F)(F)F)cc1)c1ccccc1F` [Example 1010, N-(4-{3-[2,4-Bis-(2,2,2-trifluoro-ethoxy)-phenyl]-thioureido}-phenyl)-2-fluoro-benzamide] was run?
Its IC50 is over 10 µg/mL.

What about the IC50 [1] of the same compound?
The IC50 was over 10 µg/mL.

And the IC50 (VZV strain Ellen)?
Its IC50 is over 10 µg/mL.

How did the IC50 (HSV-1) turn out when `COc1ccccc1C(=O)Nc1ccc(NC(=S)NC(C)c2ccc(C#N)cc2)cc1` (centres unmarked) [Example 1017, N-(4-{3-[1-(4-Cyano-phenyl)-ethyl]-thioureido}-phenyl)-2-methoxy-benzamide] was run?
The IC50 was over 10 µg/mL.

What about the IC50 [1] of the same compound?
The IC50 was over 10 µg/mL.

And the IC50 (VZV strain Ellen)?
The IC50 was 0.3 µg/mL (≈ 0.697 µM).

What does the source list for `COc1ccccc1C(=O)Nc1ccc(NC(=S)NC(C)c2cc3ccccc3o2)cc1` (centres unmarked) [Example 1018, N-{4-[3-(1-Benzofuran-2-yl-ethyl)-thioureido]-phenyl}-2-methoxy-benzamide]?
IC50 (HSV-1): > 10 µg/mL; IC50 [1]: > 10 µg/mL; IC50 (VZV strain Ellen): 0.09 µg/mL (≈ 0.202 µM)

What does the source list for `COc1ccccc1C(=O)Nc1ccc(NC(=S)NC(C)c2ccc(Br)cc2)cc1` (centres unmarked) [Example 1019, N-(4-{3-[1-(4-Bromo-phenyl)-ethyl]-thioureido}-phenyl)-2-methoxy-benzamide]?
IC50 (HSV-1): > 10 µg/mL; IC50 [1]: 2.6 µg/mL (≈ 5.37 µM); IC50 (VZV strain Ellen): 0.05 µg/mL (≈ 0.103 µM)

`CC(NC(=S)Nc1ccc(NC(=O)c2ccc(C(F)(F)F)cc2)cc1)c1ccc(F)cc1` (centres unmarked) [Example 1021, N-(4-{3-[1-(4-Fluorophenyl)-ethyl]-thioureido}-phenyl)-4-trifluoromethyl-benzamide] was tested. Which IC50 (HSV-1) did it give?
Its IC50 is over 10 µg/mL.

And the IC50 [1]?
Its IC50 is over 10 µg/mL.

What about the IC50 (VZV strain Ellen) of the same compound?
The IC50 was 0.4 µg/mL (≈ 0.867 µM).

What does the source list for “N-{4-[3-(3-Butylsulfonyl-phenyl)-thioureido]-phenyl}-2-fluoro-benzamide [Example 966]”?
IC50 (ug/ml) HSV (HSV-1): 7 µg/mL; IC50 ug/ml HCMV [1]: 2.5 µg/mL; IC50 (ug/ml) VZV (VZV strain Ellen): 8 µg/mL; % inhibition 10 ug/ml VZV (VZV strain Ellen): 95%

What does the source list for “N-{4-[3-(3-Chloro-4-methoxy-phenyl)-thioureido]-phenyl}-4-methoxy-benzamide [Example 821]”?
IC50 (ug/ml) HSV (HSV-1): 0.15 µg/mL; IC50 ug/ml HCMV [1]: 1 µg/mL; IC50 (ug/ml) VZV (VZV strain Ellen): >10 µg/mL; % inhibition 10 ug/ml VZV (VZV strain Ellen): 55%
